Test results from ChEMBL document CHEMBL4311943, “3-[(1S,2S,3R)-2,3-Difluoro-1-hydroxy-7-methylsulfonylindan-4-yl]oxy-5-fluorobenzonitrile (PT2977), a Hypoxia-Inducible Factor 2α (HIF-2α) Inhibitor for the Treatment of Clear Cell Renal Cell Carcinoma” (J Med Chem, 2019).
Active and inactive are the calls of the source. No cut-off for these calls is given here.

Experiments:
UGT2B17 = target: T1, UGT2B17 (Homo sapiens, UniProt O75795); assay: Substrate activity at recombinant human UGT2B17 expressed in baculovirus infected insect cell membranes assessed as enzyme-mediated glucuronidation by measuring Km at 50 uM preincubated for 5 mins followed by UDPGA addition and measured after 60 mins by LC-MS/MS analysis; format: ADME
T1 sequence (O75795 whole entry): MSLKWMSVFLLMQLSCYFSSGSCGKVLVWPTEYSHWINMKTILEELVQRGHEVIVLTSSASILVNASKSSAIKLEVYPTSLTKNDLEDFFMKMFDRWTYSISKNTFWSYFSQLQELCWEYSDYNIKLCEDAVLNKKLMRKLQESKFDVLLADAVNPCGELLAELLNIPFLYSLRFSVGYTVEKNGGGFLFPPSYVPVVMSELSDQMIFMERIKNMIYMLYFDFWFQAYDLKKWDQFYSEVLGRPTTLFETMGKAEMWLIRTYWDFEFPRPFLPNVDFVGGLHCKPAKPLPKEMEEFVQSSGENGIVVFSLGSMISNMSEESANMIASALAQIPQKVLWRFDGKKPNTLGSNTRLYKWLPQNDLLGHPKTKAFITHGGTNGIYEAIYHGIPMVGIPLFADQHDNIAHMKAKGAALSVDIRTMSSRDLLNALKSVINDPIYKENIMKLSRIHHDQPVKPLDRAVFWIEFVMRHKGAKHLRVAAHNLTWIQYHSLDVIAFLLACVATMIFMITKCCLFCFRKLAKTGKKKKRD

Cytochrome P450 3A4 = Cytochrome P450 3A4 (Homo sapiens, UniProt P08684); assay: Inhibition of CYP3A4 in human liver microsomes up to 50 uM using testosterone as substrate measured after 10 mins in presence of NADPH by LC-MS/MS analysis; format: ADME
[1] = Half life in Beagle dog at 1 mg/kg, iv by UPLC-MS analysis; format: ADME, organism-based, Canis lupus familiaris; details: in vivo
[2] = Dose normalized AUClast in CD-1 mouse at 10 mg/kg, po administered via gavage by UPLC-MS analysis; format: ADME, organism-based; details: in vivo
Mus musculus = assay: In vivo inhibition of HIF-2alpha in SCID Beige mouse xenografted with human 786-O cells assessed as reduction in cyclin D1 mRNA expression administered twice daily via oral gavage for 3 days measured 12 hrs post-last dose by qRT-PCR analysis; format: functional, organism-based
[3] = Half life in patient with advanced solid tumor at 240 mg, po administered once daily measured on day 15; format: ADME, organism-based; details: human, in vivo
[4] = Plasma concentration in patient with advanced solid tumor at 240 mg, po administered once daily measured on day 15 after 24 hrs; format: ADME, organism-based; details: human
[5] = target: CDK2/Cyclin A2 (Homo sapiens) (UniProt P24941+P20248); assay: Activity at human CDK2/cyclinA at 10 uM; format: protein-complex assay
[6] = target: Calcium/calmodulin-dependent protein kinase type II subunit delta (Homo sapiens) (UniProt Q13557); assay: Activity at human CAMK2D at 10 uM
[7] = target: Calcium/calmodulin-dependent protein kinase type IV (Homo sapiens) (UniProt Q16566); assay: Activity at human CAMK4 at 10 uM
[8] = target: Tyrosine-protein kinase ABL1 (Homo sapiens) (UniProt P00519); assay: Activity at human Abl at 10 uM
Chain of Tyrosine-protein kinase ABL1 (Homo sapiens) (P00519 whole entry): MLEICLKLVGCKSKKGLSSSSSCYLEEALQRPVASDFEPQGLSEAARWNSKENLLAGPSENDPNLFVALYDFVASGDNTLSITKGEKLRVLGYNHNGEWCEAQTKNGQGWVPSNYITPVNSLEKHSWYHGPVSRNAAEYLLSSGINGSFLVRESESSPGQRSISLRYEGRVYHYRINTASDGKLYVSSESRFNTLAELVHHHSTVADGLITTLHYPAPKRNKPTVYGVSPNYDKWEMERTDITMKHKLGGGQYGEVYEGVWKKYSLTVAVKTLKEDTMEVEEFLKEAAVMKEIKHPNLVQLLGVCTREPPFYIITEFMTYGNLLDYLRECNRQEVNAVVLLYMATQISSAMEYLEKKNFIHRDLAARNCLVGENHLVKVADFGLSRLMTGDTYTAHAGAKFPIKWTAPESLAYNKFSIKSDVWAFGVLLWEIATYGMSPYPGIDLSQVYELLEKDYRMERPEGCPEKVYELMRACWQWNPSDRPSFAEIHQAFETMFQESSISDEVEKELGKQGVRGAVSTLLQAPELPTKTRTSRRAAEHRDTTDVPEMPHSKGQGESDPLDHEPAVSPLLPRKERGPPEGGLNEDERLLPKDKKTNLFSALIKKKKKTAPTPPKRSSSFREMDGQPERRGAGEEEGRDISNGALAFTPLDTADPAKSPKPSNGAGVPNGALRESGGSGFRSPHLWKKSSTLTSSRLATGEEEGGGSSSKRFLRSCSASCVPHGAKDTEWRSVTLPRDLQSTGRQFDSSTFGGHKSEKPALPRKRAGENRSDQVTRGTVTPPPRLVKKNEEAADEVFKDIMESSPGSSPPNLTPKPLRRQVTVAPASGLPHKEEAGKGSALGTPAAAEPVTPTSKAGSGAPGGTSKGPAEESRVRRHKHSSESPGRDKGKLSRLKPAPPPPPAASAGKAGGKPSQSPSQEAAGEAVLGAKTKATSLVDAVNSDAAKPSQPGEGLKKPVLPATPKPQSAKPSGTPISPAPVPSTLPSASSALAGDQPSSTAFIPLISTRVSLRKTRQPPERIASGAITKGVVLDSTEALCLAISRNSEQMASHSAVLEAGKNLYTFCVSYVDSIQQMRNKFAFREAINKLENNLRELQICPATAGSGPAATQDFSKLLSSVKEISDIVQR

[9] = target: Potassium voltage-gated channel subfamily A member 5 (Homo sapiens) (UniProt P22460); assay: Activity at human Kv1.5 at 10 uM
[10] = target: Potassium/sodium hyperpolarization-activated cyclic nucleotide-gated channel 4 (Homo sapiens) (UniProt Q9Y3Q4); assay: Activity at human HCN4 at 10 uM
[11] = target: Vasoactive intestinal polypeptide receptor 2 (Homo sapiens) (UniProt P41587); assay: Activity at human VPAC2 at 10 uM
[12] = target: Voltage-gated inwardly rectifying potassium channel KCNH2 (Homo sapiens, UniProt Q12809); assay: Activity at human ERG at 10 uM
[13] = target: Vasoactive intestinal polypeptide receptor 1 (Homo sapiens) (UniProt P32241); assay: Activity at human VPAC1 at 10 uM
[14] = target: Urotensin-2 receptor (Homo sapiens) (UniProt Q9UKP6); assay: Activity at human GPR14 receptor at 10 uM
Chain of Urotensin-2 receptor (Homo sapiens) (Q9UKP6 whole entry): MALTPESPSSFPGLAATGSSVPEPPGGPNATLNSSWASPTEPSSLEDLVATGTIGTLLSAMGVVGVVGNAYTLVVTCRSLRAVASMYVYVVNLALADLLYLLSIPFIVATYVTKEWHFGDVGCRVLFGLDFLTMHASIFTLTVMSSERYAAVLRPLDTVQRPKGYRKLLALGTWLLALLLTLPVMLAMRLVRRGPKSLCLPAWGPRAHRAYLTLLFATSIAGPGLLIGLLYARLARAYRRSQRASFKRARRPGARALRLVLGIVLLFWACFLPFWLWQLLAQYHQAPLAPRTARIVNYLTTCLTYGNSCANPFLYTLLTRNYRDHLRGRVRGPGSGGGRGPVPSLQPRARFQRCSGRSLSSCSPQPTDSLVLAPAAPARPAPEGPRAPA

[15] = target: Somatostatin receptor type 4 (Homo sapiens) (UniProt P31391); assay: Activity at human SST4 receptor at 10 uM
Chain of Somatostatin receptor type 4 (Homo sapiens) (P31391 whole entry): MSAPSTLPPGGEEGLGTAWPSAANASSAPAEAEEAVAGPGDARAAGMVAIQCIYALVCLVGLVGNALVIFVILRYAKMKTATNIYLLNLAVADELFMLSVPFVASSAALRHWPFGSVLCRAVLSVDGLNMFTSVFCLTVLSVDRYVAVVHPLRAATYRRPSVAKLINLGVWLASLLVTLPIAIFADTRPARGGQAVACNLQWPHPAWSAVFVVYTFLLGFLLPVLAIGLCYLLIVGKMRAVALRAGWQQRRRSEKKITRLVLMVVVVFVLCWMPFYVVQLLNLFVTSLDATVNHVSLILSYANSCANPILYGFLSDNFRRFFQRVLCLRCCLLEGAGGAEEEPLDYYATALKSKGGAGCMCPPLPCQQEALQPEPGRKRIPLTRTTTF

[16] = target: Prostaglandin D2 receptor (Homo sapiens) (UniProt Q13258); assay: Activity at human Prostanoid DP receptor at 10 uM
Chain of Prostaglandin D2 receptor (Homo sapiens) (Q13258 whole entry): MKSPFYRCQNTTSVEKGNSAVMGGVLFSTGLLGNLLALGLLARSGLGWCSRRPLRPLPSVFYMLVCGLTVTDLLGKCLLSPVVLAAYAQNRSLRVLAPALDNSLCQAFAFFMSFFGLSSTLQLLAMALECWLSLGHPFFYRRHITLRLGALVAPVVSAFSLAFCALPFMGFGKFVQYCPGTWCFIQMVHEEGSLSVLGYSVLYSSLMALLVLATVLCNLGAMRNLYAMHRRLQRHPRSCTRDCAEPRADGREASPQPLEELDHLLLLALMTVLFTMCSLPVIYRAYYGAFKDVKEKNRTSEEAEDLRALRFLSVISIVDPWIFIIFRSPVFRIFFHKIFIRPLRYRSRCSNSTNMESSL

[17] = target: Platelet-activating factor receptor (Homo sapiens) (UniProt P25105); assay: Activity at human PAF receptor at 10 uM
[18] = target: Orexin/Hypocretin receptor type 1 (Homo sapiens) (UniProt O43613); assay: Activity at human OX1 receptor at 10 uM
[19] = target: Delta-type opioid receptor (Homo sapiens) (UniProt P41143); assay: Activity at human delta opioid receptor at 10 uM
Chain of Delta-type opioid receptor (Homo sapiens) (P41143 whole entry): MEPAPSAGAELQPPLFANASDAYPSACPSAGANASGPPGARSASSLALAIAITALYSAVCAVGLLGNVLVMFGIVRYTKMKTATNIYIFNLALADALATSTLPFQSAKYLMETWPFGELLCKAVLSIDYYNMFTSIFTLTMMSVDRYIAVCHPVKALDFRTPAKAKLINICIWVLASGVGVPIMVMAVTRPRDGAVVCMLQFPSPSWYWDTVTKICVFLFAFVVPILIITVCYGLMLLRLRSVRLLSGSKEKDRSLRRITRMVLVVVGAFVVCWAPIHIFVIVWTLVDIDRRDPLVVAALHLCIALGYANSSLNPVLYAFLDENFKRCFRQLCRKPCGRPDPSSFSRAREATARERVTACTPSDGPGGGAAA

[20] = target: Kappa-type opioid receptor (Homo sapiens) (UniProt P41145); assay: Activity at human kappa opioid receptor at 10 uM
Chain of Kappa-type opioid receptor (Homo sapiens) (P41145 whole entry): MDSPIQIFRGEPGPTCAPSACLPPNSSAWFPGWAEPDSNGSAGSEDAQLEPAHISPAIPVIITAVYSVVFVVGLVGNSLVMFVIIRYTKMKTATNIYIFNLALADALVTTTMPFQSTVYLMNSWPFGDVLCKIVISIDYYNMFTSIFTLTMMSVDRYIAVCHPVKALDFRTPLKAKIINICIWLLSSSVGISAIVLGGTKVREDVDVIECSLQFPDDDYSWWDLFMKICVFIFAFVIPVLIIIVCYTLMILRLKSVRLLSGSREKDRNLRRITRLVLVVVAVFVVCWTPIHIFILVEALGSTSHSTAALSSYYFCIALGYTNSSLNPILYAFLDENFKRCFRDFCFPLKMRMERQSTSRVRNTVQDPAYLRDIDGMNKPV

[21] = target: Histamine H3 receptor (Homo sapiens) (UniProt Q9Y5N1); assay: Activity at human H3 receptor at 10 uM
[22] = target: Endothelin receptor type B (Homo sapiens) (UniProt P24530); assay: Activity at human ETB receptor at 10 uM
[23] = target: Gastrin/cholecystokinin type B receptor (Homo sapiens) (UniProt P32239); assay: Activity at human CCK2 receptor at 10 uM
Chain of Gastrin/cholecystokinin type B receptor (Homo sapiens) (P32239 whole entry): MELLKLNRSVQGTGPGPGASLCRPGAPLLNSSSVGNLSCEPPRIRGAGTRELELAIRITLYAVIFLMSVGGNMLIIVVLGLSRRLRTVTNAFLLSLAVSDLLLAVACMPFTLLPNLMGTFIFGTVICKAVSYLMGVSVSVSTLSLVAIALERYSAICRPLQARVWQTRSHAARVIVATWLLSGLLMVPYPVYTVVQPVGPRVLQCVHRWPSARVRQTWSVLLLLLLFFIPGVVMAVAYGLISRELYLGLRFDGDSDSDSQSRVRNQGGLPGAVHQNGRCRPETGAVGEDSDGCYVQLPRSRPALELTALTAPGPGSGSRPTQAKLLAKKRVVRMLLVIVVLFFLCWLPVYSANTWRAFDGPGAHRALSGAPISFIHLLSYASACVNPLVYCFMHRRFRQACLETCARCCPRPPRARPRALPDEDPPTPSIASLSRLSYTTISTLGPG

[24] = target: CX3C chemokine receptor 1 (Homo sapiens) (UniProt P49238); assay: Activity at human CX3CR1 receptor at 10 uM
Chain of CX3C chemokine receptor 1 (Homo sapiens) (P49238 whole entry): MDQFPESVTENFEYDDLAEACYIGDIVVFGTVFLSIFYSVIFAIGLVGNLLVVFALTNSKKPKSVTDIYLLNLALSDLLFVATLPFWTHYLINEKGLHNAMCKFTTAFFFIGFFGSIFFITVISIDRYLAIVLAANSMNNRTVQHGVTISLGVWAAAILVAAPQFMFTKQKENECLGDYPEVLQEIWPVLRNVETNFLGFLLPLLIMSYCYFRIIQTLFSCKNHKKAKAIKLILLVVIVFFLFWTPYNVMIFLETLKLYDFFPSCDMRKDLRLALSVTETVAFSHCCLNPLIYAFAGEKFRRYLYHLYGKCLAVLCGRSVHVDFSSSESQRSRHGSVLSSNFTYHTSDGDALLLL

[25] = target: CDK9/cyclin T1 (Homo sapiens) (UniProt O60563+P50750); assay: Activity at human CDK9/cyclinT1 at 10 uM; format: protein-complex assay
[26] = target: Mitogen-activated protein kinase 1 (Homo sapiens) (UniProt P28482); assay: Activity at human MAPK1 at 10 uM
Chain of Mitogen-activated protein kinase 1 (Homo sapiens) (P28482 whole entry): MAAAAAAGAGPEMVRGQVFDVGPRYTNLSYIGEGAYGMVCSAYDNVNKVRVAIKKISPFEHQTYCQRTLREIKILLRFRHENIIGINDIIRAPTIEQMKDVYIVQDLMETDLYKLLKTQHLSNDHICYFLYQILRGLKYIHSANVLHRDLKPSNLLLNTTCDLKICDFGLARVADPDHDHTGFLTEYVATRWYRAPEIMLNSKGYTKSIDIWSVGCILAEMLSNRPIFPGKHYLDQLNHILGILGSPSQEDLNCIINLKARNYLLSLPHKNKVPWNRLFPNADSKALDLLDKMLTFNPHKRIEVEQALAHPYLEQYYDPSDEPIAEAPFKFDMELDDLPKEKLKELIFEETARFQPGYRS

[27] = target: Ribosomal protein S6 kinase beta-1 (Homo sapiens) (UniProt P23443); assay: Activity at human p70S6K at 10 uM
[28] = target: Protein kinase C delta type (Homo sapiens) (UniProt Q05655); assay: Activity at human PKCdelta at 10 uM
[29] = target: Protein kinase C zeta type (Homo sapiens) (UniProt Q05513); assay: Activity at human PKCzeta at 10 uM
[30] = target: Protein kinase C theta type (Homo sapiens) (UniProt Q04759); assay: Activity at human PKCtheta at 10 uM
[31] = target: Mitogen-activated protein kinase 14 (Homo sapiens) (UniProt Q16539); assay: Activity at human SAPK2a at 10 uM
Chain of Mitogen-activated protein kinase 14 (Homo sapiens) (Q16539 whole entry): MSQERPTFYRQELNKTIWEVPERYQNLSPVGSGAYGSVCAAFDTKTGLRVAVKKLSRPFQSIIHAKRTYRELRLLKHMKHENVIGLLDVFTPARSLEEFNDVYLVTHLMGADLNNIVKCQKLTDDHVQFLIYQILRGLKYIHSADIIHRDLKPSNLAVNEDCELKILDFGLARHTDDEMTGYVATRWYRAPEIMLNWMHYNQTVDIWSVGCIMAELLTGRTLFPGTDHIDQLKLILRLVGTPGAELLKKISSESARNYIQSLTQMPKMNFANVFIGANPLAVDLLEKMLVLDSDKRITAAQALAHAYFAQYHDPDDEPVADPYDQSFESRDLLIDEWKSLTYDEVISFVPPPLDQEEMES

[32] = target: Tyrosine-protein phosphatase non-receptor type 1 (Homo sapiens) (UniProt P18031); assay: Activity at human PTP1B at 10 uM
[33] = target: Beta-1 adrenergic receptor (Homo sapiens) (UniProt P08588); assay: Activity at human beta1 receptor at 10 uM
[34] = target: Beta-2 adrenergic receptor (Homo sapiens) (UniProt P07550); assay: Activity at human beta2 receptor at 10 uM
Chain of Beta-2 adrenergic receptor (Homo sapiens) (P07550 whole entry, looked up): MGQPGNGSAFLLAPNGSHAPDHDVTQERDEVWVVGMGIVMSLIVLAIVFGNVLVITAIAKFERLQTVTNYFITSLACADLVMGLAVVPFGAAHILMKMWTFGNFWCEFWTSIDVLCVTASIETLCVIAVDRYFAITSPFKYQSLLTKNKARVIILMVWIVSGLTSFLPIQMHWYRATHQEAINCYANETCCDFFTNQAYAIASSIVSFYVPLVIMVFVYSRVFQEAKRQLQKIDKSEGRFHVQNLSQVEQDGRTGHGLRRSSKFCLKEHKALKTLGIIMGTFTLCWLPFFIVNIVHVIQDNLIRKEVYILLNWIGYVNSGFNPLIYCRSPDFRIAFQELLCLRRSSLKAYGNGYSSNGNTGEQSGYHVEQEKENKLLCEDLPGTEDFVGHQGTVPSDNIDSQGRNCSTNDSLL

CS(=O)(=O)c1ccc(Oc2cc(F)cc(C#N)c2)c2c1[C@H](O)[C@H](F)[C@@H]2F [BELZUTIFAN]
Km at 1 h, 50 µM (UGT2B17): 10 µM | inhibition (INH) (Cytochrome P450 3A4): Not Active | half-life [1]: 14 h | AUClast/dose [2]: 37 µM·h | inhibition (Mus musculus): Dose-dependent effect | half-life [3]: 14.1 h | concentration at 24 h [4]: 0.57 µg/mL | Activity [5]: inactive | Activity [6]: inactive | Activity [7]: inactive | Activity [8]: inactive | Activity [9]: inactive | Activity [10]: inactive | Activity [11]: inactive | Activity [12]: Not Active | Activity [13]: inactive | Activity [14]: inactive | Activity [15]: inactive | Activity [16]: inactive | Activity [17]: inactive | Activity [18]: inactive | Activity [19]: inactive | Activity [20]: inactive | Activity [21]: inactive | Activity [22]: inactive | Activity [23]: inactive | Activity [24]: inactive | Activity [25]: inactive | Activity [26]: inactive | Activity [27]: inactive | Activity [28]: inactive | Activity [29]: inactive | Activity [30]: inactive | Activity [31]: inactive | Activity [32]: inactive | Activity [33]: inactive | Activity [34]: inactive
